Results on two compounds are retold here after PMC3254824 (Biochemistry, 2011).

In assay [1] the target is T1, yThg1 (yeast Thg1, tRNA^His guanylyltransferase) (Saccharomyces cerevisiae, UniProt P53215).
T1 sequence (P53215 1-237): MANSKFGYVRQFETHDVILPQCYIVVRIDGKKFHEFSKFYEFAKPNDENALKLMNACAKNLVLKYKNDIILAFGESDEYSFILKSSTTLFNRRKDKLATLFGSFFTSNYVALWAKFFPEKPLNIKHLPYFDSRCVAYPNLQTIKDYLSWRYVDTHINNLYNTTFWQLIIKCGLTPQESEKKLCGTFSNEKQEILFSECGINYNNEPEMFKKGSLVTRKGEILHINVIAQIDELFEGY
Nature of the assay: single-turnover nucleotidyl transfer kinetics, gamma-32P ppp-tRNA. The class given is biochemical. The conditions noted are these: read-out: KDapp,NTP, nucleotidyl transfer step, 15 μM enzyme, 10 mM MgCl2, pH 7.5, room temperature.

The target of assay [2] is T1, yThg1 (yeast Thg1, tRNA^His guanylyltransferase). Nature of the assay: single-turnover adenylylation kinetics, […]'-32P tRNA. It counts as biochemical. The conditions noted are these: read-out: KDapp,NTP, adenylylation step, 15 μM enzyme, 10 mM MgCl2, pH 6.0, room temperature.

`Nc1nc2c(ncn2[C@@H]2O[C@H](COP(=O)(O)OP(=O)(O)OP(=O)(O)O)[C@@H](O)[C@H]2O)c(=O)[nH]1` [GTP]: the Kd in assay [1] turned out to be 21 ± 4 µM. For the compound `Nc1ncnc2c1ncn2[C@@H]1O[C@H](COP(=O)(O)OP(=O)(O)OP(=O)(O)O)[C@@H](O)[C@H]1O` [ATP], in assay [2], the Kd is 360 ± 80 µM.
